# Laboratory results taken from patent US20160120863A1, “SLC2A TRANSPORTER INHIBITORS” (IOMET PHARMA LTD., priority 2013, published 2016).
# Molecular target: T1, human GLUT1 (Homo sapiens, UniProt P11166)
# T1 construct: expressed in transfected cells
# T1 sequence (P11166 1-492): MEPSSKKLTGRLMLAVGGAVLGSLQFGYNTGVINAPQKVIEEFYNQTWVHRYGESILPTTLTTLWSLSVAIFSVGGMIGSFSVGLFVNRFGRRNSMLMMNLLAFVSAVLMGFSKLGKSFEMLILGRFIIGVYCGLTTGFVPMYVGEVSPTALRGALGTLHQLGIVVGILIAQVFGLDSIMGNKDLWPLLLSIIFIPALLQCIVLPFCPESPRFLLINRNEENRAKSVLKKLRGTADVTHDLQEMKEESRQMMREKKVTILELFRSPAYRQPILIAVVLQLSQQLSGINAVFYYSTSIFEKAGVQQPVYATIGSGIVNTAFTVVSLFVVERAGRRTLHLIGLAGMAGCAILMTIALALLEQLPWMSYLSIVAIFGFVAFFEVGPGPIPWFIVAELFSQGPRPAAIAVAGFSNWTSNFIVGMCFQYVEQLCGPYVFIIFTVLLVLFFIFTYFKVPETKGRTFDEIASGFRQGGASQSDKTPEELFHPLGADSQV
# Assay: [3H]-deoxy-D-glucose uptake assay, GLUT1
# Assay type: cell-based
# Details: [3H]-deoxy-D-glucose uptake in HEK293 cells stably expressing human GLUT1
# Protocol: HEK293 cells were engineered to stably express either human GLUT1, GLUT2, GLUt3 or GLUT4 by transfection with the pReceiver-Lv105 plasmid, containing either hGLUT1, hGLUT2, hGLUT3, or hGLUT4 gene constructs with lipofectamine 2000, hGLUT1- hGLUT2- hGLUT3- or hGLUT4-overexpressing polyclonal populations were isolated under purinomycin selective pressure (1 μg/ml) and maintained in Dulbecco's modified Eagle's medium supplemented with 1 μg/ml purinomycin+10% foetal bovine serum (FBS).
# 60,000 cells per well were seeded overnight into poly-D-lysine coasted 96-well plates. […] 90 μl of test compounds were added in glucose-free uptake buffer and cells were incubated at 37° C. for 30 min.
# Cells were then washed twice with ice-cold PBS and 100 μl of Microscint-20 was added per well. Glucose uptake was quantified with a scintillation counter. The half maximal inhibitory concentration (IC50) (a measure of the effectiveness of the test compound in inhibiting glucose uptake) was determined.
row,Structure (SMILES),GLUT1 pIC50
1,Clc1ccc(-c2nc3ccc(-c4ccccc4)cn3c2CN2CCOCC2)cc1 [Compound 1],++ (pIC50 5.00-5.99)
2,Clc1ccc(-c2nc3ccccn3c2CN2CCOCC2)cc1 [Compound 3],++ (pIC50 5.00-5.99)
3,Clc1ccc(-c2nc3ccc(Cl)cn3c2CN2CCSCC2)cc1 [Compound 4],+ (pIC50 4.00-4.99)
4,Clc1ccc(-c2nc3ccc(Cl)cn3c2CN2CCCCC2)cc1 [Compound 5],+ (pIC50 4.00-4.99)
5,Cc1ccc2nc(-c3ccccc3)c(CN3CCSCC3)n2c1 [Compound 6],+− (pIC50 < 4.00)
6,Cc1ccc2nc(-c3ccccc3)c(CN3CCN(c4ccccc4F)CC3)n2c1 [Compound 7],+ (pIC50 4.00-4.99)
7,CCS(=O)(=O)N1CCN(Cc2c(-c3cccc([N+](=O)[O-])c3)nc3ccc(-c4ccccc4)cn23)CC1 [Compound 9],++ (pIC50 5.00-5.99)
8,Cc1ccc(-c2cn3cc(-c4ccccc4)ccc3n2)cc1 [Compound 11],+ (pIC50 4.00-4.99)
9,O=[N+]([O-])c1ccc(-c2nc3ccc(-c4ccccc4)cn3c2CN2CCNCC2)cc1 [Compound 12],+ (pIC50 4.00-4.99)
10,O=C(c1cccs1)N1CCN(Cc2c(-c3ccc([N+](=O)[O-])cc3)nc3ccc(-c4ccccc4)cn23)CC1 [Compound 13],+++ (pIC50 ≧ 6.00)
11,O=C(c1ccco1)N1CCN(Cc2c(-c3cccc([N+](=O)[O-])c3)nc3ccc(-c4ccccc4)cn23)CC1 [Compound 15],++ (pIC50 5.00-5.99)
12,COc1cccc(-c2nc3ccc(-c4ccccc4)cn3c2CN2CCN(C(=O)C3CCC3)CC2)c1 [Compound 16],++ (pIC50 5.00-5.99)
13,COCCNC(=O)CCc1c(-c2ccc([N+](=O)[O-])cc2)nc2ccc(-c3ccccc3)cn12 [Compound 17],+− (pIC50 < 4.00)
14,O=C(COCc1ccccc1)N1CCN(Cc2c(-c3ccc(Cl)cc3)nc3ccc(-c4ccccc4)cn23)CC1 [Compound 18],+++ (pIC50 ≧ 6.00)
15,Cc1cccc(C)c1NC(=O)N1CCN(Cc2c(-c3ccc(Cl)cc3)nc3ccc(-c4ccccc4)cn23)CC1 [Compound 19],+++ (pIC50 ≧ 6.00)
16,COc1cccc(-c2nc3ccc(-c4ccccc4)cn3c2CN2CCN(C(=O)c3cccs3)CC2)c1 [Compound 20],+++ (pIC50 ≧ 6.00)
17,O=C(c1cccc([N+](=O)[O-])c1)N1CCN(Cc2c(-c3ccc(Cl)cc3)nc3ccc(-c4ccccc4)cn23)CC1 [Compound 21],++ (pIC50 5.00-5.99)
18,Clc1ccc(-c2nc3ccc(Cl)cn3c2CN2CCOCC2)cc1 [Compound 27],++ (pIC50 5.00-5.99)
19,CC1CN(Cc2c(-c3ccccc3)nc3ccc(Cl)cn23)CC(C)O1 (stereo not drawn) [Compound 28],++ (pIC50 5.00-5.99)
20,Cc1ccc2nc(-c3ccccc3)c(CN3CCNC(=O)C3)n2c1 [Compound 30],+− (pIC50 < 4.00)

# The next lines start with the values.
row,GLUT1 pIC50,Structure (SMILES)
1,+++ (pIC50 ≧ 6.00),O=C(C1CCCC1)N1CCN(Cc2c(-c3ccc([N+](=O)[O-])cc3)nc3ccc(-c4ccccc4)cn23)CC1 [Compound 24]
2,++ (pIC50 5.00-5.99),CCS(=O)(=O)N1CCN(Cc2c(-c3cccc(OC)c3)nc3ccc(-c4ccccc4)cn23)CC1 [Compound 25]
3,++ (pIC50 5.00-5.99),COc1cccc(-c2nc3ccc(-c4ccccc4)cn3c2CN2CCN(C(=O)C3CC3)CC2)c1 [Compound 26]
4,+ (pIC50 4.00-4.99),CC1CN(Cc2c(-c3ccccc3)nc3ccccn23)CC(C)O1 (stereo not drawn) [Compound 29]
5,++ (pIC50 5.00-5.99),O=C(C1CCC1)N1CCN(Cc2c(-c3cccc([N+](=O)[O-])c3)nc3ccc(-c4ccccc4)cn23)CC1 [Compound 33]
6,++ (pIC50 5.00-5.99),COc1cccc(-c2nc3ccc(-c4ccccc4)cn3c2CN2CCN(C(=O)CC(C)C)CC2)c1 [Compound 34]
7,+++ (pIC50 ≧ 6.00),COc1cccc(-c2nc3ccc(-c4ccccc4)cn3c2CN2CCN(C(=O)C3CCCC3)CC2)c1 [Compound 35]
8,+++ (pIC50 ≧ 6.00),COc1ccc(C(=O)N2CCN(Cc3c(-c4ccc(OC)cc4)nc4ccc(-c5ccccc5)cn34)CC2)cc1 [Compound 36]
9,++ (pIC50 5.00-5.99),CC(C)(C)CC(=O)N1CCN(Cc2c(-c3ccc([N+](=O)[O-])cc3)nc3ccc(-c4ccccc4)cn23)CC1 [Compound 38]
10,+ (pIC50 4.00-4.99),COc1cccc(-c2nc3ccc(-c4ccccc4)cn3c2CN2CCN(C(=O)c3ccccc3Cl)CC2)c1 [Compound 39]
11,++ (pIC50 5.00-5.99),Cc1ccc(C(=O)N2CCN(Cc3c(-c4ccc(F)cc4)nc4ccc(-c5ccccc5)cn34)CC2)cc1 [Compound 40]
12,++ (pIC50 5.00-5.99),CC(C)(C)NC(=O)N1CCN(Cc2c(-c3ccc(Cl)cc3)nc3ccc(-c4ccccc4)cn23)CC1 [Compound 41]
13,+ (pIC50 4.00-4.99),CC(C)(C)c1ccc(C(=O)N2CCN(Cc3c(-c4ccc(Cl)cc4)nc4ccc(-c5ccccc5)cn34)CC2)cc1 [Compound 42]
14,+++ (pIC50 ≧ 6.00),CC(C)CC(=O)N1CCN(Cc2c(-c3ccc(Cl)cc3)nc3ccc(-c4ccccc4)cn23)CC1 [Compound 43]
15,+++ (pIC50 ≧ 6.00),O=C(c1ccccc1)N1CCN(Cc2c(-c3ccc(Cl)cc3)nc3ccc(-c4ccccc4)cn23)CC1 [Compound 44]
16,+++ (pIC50 ≧ 6.00),O=C(c1ccccc1F)N1CCN(Cc2c(-c3ccc(Cl)cc3)nc3ccc(-c4ccccc4)cn23)CC1 [Compound 45]
17,++ (pIC50 5.00-5.99),CC(C)(C)CC(=O)N1CCN(Cc2c(-c3ccc(Cl)cc3)nc3ccc(-c4ccccc4)cn23)CC1 [Compound 46]
18,+++ (pIC50 ≧ 6.00),O=C(C1CCCC1)N1CCN(Cc2c(-c3ccc(Cl)cc3)nc3ccc(-c4ccccc4)cn23)CC1 [Compound 47]
19,+++ (pIC50 ≧ 6.00),COc1cccc(-c2nc3ccc(-c4ccccc4)cn3c2CN2CCN(C(=O)c3ccc(F)cc3)CC2)c1 [Compound 49]
20,+++ (pIC50 ≧ 6.00),Cc1ccc(-c2nc3ccc(-c4ccccc4)cn3c2CN2CCN(C(=O)c3ccc(F)cc3)CC2)cc1 [Compound 50]
21,++ (pIC50 5.00-5.99),COc1cccc(-c2nc3ccc(-c4ccccc4)cn3c2CN2CCN(C(=O)c3ccco3)CC2)c1 [Compound 51]
22,+++ (pIC50 ≧ 6.00),COc1cccc(-c2nc3ccc(-c4ccccc4)cn3c2CN2CCN(C(=O)c3cccc(F)c3)CC2)c1 [Compound 52]
23,+++ (pIC50 ≧ 6.00),O=C(c1ccc(F)cc1)N1CCN(Cc2c(-c3ccc(Cl)cc3)nc3ccc(-c4ccccc4)cn23)CC1 [Compound 53]
24,++ (pIC50 5.00-5.99),COc1cccc(-c2nc3ccc(-c4ccccc4)cn3c2CN2CCN(C(=O)C(C)C)CC2)c1 [Compound 54]
25,++ (pIC50 5.00-5.99),CC(C)C(=O)N1CCN(Cc2c(-c3cccc([N+](=O)[O-])c3)nc3ccc(-c4ccccc4)cn23)CC1 [Compound 55]
26,++ (pIC50 5.00-5.99),O=C(C1CC1)N1CCN(Cc2c(-c3cccc([N+](=O)[O-])c3)nc3ccc(-c4ccccc4)cn23)CC1 [Compound 56]
27,++ (pIC50 5.00-5.99),COCC(=O)N1CCN(Cc2c(-c3cccc(OC)c3)nc3ccc(-c4ccccc4)cn23)CC1 [Compound 57]
28,+ (pIC50 4.00-4.99),CC(C)(C)CC(=O)N1CCN(Cc2c(-c3cccc([N+](=O)[O-])c3)nc3ccc(-c4ccccc4)cn23)CC1 [Compound 58]
